{"source": "patent US20250270206A1", "about": "“COMPOSITIONS AND METHODS FOR INHIBITION OF RAS” (TheRas, Inc., priority 2022, published 2025)", "key": {"[1]": {"molecular_target": "T1, GppNHp-loaded KRAS4b (amino acids 1-169) G12C/C118S (Homo sapiens, UniProt P01116, C118S/G12C)", "T1 construct": "KRAS4b (amino acids 1-169) G12C/C118S protein; made in house", "assay": "MALDI-TOF MS covalent Cys12 modification, GppNHp-loaded KRAS G12C", "format": "binding", "conditions": "15 minutes reaction time, 1 μM protein, 1:2.5 protein to compound ratio", "procedure,_shortened": "(§1)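 1 μM KRAS4b(1-169) G12C/C118S loaded with GTP, GppNHp or GDP in 20 mM HEPES, 150 mM NaCl, 1 mM MgCl2, pH 7.3, treated at a 1:2.5 protein:compound ratio in the dark at room temperature. Linear-mode MALDI-TOF; percent modification = adduct peak height over total protein peak heights, at 15 min.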"}, "[2]": {"molecular_target": "T2, GTP-loaded KRAS4b (amino acids 1-169) G12C/C118S (Homo sapiens, UniProt P01116, C118S/G12C)", "T2 construct": "KRAS4b (amino acids 1-169) G12C/C118S protein; made in house", "assay": "MALDI-TOF MS covalent Cys12 modification, GTP-loaded KRAS G12C", "format": "binding", "conditions": "15 minutes reaction time, 1 μM protein, 1:2.5 protein to compound ratio", "procedure,_shortened": "as §1"}, "[3]": {"molecular_target": "T3, GDP-loaded KRAS4b (amino acids 1-169) G12C/C118S (Homo sapiens, UniProt P01116, C118S/G12C)", "T3 construct": "KRAS4b (amino acids 1-169) G12C/C118S protein; made in house", "assay": "MALDI-TOF MS covalent Cys12 modification, GDP-loaded KRAS G12C", "format": "binding", "conditions": "15 minutes reaction time, 1 μM protein, 1:2.5 protein to compound ratio", "procedure,_shortened": "as §1"}, "[4]": {"molecular_target": "T4, Avi-KRAS G12C (1-169) GppNHp/RAF1 RBD-3×FLAG (52-151) (Homo sapiens, UniProt P01116, G12C)", "T4 construct": "Avi-KRAS G12C (1-169) GppNHp", "assay": "KRAS G12C-effector (RAF1 RBD) protein:protein interaction HTRF disruption assay", "format": "biochemical", "conditions": "PPI HTRF", "procedure,_shortened": "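50 nM Avi-KRAS G12C (1-169) loaded with GppNHp, then 75 nM RAF1 RBD-3×FLAG, then HTRF detection mix, each step 1 h at room temperature. Buffer was 50 mM Tris pH 7.5, 100 mM NaCl, 5 mM MgCl2, 0.1% BSA, 0.01% Tween 20, 10% DMSO. Compounds titrated 30-0.02 μM (3× series). Read at 615 nm emission, reported as % activity vs DMSO (100%).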"}, "[5]": {"system": "pERK in NCI-H358 cells", "assay": "Cell-based pERK HTRF assay", "conditions": "Homo sapiens, 0.5 h, 30 min incubation", "procedure,_shortened": "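KRAS G12C NCI-H358 cells in RPMI/10% FBS treated 30 min with compound, 9-point 3-fold series from 75 μM final top, 0.25% DMSO. Lysates read for phospho-ERK by HTRF (d2/Eu cryptate antibodies, 615 nm emission) after 4–24 h room-temperature incubation.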"}}, "data": [{"smiles": "C=CC(=O)N1C[C@H](C)N(c2nc(OC[C@@]34CCCN3C[C@H](F)C4)nc3cc(-c4ccc(F)c5sc(N)c(C#N)c45)c(C(F)(F)F)nc23)C[C@H]1C", "note": "[Compound 10, 4-(4-((2S,5R)-4-acryloyl-2,5-dimethylpiperazin-1-yl)-2-(((2R,7aS)-2-fluorotetrahydro-1H-pyrrolizin-7a(5H)-yl)methoxy)-6-(trifluoromethyl)pyrido[3,2-d]pyrimidin-7-yl)-2-amino-7-fluorobenzo[b]thiophene-3-carbonitrile]", "values": [{"measurement": "GppNHp-KRAS G12C percent of modification", "setting": "[1]", "value": "A (percent of modification ≥70%)"}, {"measurement": "GTP-KRAS G12C percent of modification", "setting": "[2]", "value": "C (10%≤percent of modification <50%)"}, {"measurement": "GDP-KRAS G12C percent of modification", "setting": "[3]", "value": "A (percent of modification ≥70%)"}, {"measurement": "IC50", "setting": "[4]", "value": "≤ 500", "unit": "nM"}, {"measurement": "IC50", "setting": "[5]", "value": "≤ 100", "unit": "nM"}]}]}
